In assay [1] the test system is HT29 human colon cancer cells. In words: Flow cytometry of nanocage binding to HT29 cancer cells. Type of assay: cell-based. Conditions: 20, 200, 400 or 600 nM. The method, then:
In order to confirm the affinity of cancer cells for nanocages produced using various SIRP proteins prepared in Examples 1-2 to 1-5, respectively in addition to the nanocage prepared in Example 1-1, flow cytometry was performed. Particularly, HT29 human colon cancer cells were seeded into 2×10^5 cells/ml and the wild-type ferritin heavy chain nanocage as a control group, the FH-SIRPα HV nanocage prepared in Example 1-1, the FH-hSIRPα WT nanocage prepared in Example 1, the FH-SIRPγ WT nanocage prepared in Example 1-3 and the FH-SIRPγ V2 nanocage prepared in Example 1-5 were treated at the concentration of 20, 200, 400 or 600 nM, respectively, and the degree of cell binding was measured. Particularly, after treating anti-ferritin heavy chain primary antibody (Abcam, Cambridge, UK, 1:200) and an Alexafluor 488-conjugated donkey anti-rabbit secondary antibody (Jackson ImmunoResearch, Suffolk, UK, 1:400), the cells were sorted according to fluorescence intensity through flow cytometry analysis.
A general note: A flow cytometer gives signals particle by particle.

The subject of assay [2] is Raji, HT-29, 4T1, CT26 and CT26.CL25 cancer cells co-cultured with BMDCs. Kind of assay: Phagocytosis of cancer cells by bone marrow-derived dendritic cells (FACS). Conditions: 400 nM; compared with control group. The class given is cell-based, human, mouse. The source says:
(§1) Particularly, the present inventors observed the phagocytic action of macrophages and dendritic cells against tumor cells through FACS analysis. First, 3×10^5 cells/ml of bone marrow-derived macrophages (BMDMs) pre-stained with CellTracker Green (Thermo Fisher Scientific, USA) and (a) 1.25×10^6 cells/ml of human Raji Burkitt lymphoma cells, (b) human HT-29 colorectal cancer cells, (c) mouse 4T1 breast cancer cells, (d) mouse CT26 colorectal cancer cells and (e) mouse CT26.CL25 colorectal cancer cells overexpressing β-galactosidase pre-stained with pHrodo Red SE, respectively were seeded in RPMI medium and buffer only (control), the ferritin-SIRPα fusion nanocage (FH-SIRPα HV) of the present invention, the wild-type ferritin heavy chain nanocage (wtFH) and the monomeric SIRPα (mSIRPα) were treated at the concentration of 400 nM, respectively. […] The phagocytosis rate was determined by the following formula. […]

The test system of assay [3] is Raji, HT-29, 4T1, CT26 and CT26.CL25 cancer cells co-cultured with BMDMs. Kind of assay: Phagocytosis of cancer cells by bone marrow-derived macrophages (FACS). The class given is cell-based, human, mouse. To be noted: 400 nM; compared with control group.
Description: as §1

In assay [4] the test system is CT26.CL25 cancer cells. In words: In vivo cancer growth inhibition, tail vein injection of doxorubicin nanocage complex and comparators. On the set-up: species or system Balb/c wild-type mice. Conditions: tail vein 1 mg/kg; for tumor tissues excised after 25 days of cancer cell injection: day 25. As to the method:
(§2) The antitumor activities of the ferritin heavy chain nanocage prepared in Examples 1-1 to 1-5 and the doxorubicin nanocage complex prepared in Example 3 were examined. Particularly, Balb/c wild type mice were used as the experimental animals, and experiments on the above experimental animals were carried out according to the regulations of the KIST animal ethics committee.
In addition, the present inventors investigated the in vivo anticancer activity of the doxorubicin-encapsulated nanocage complex prepared in Example 3 above. Particularly, 1×10^6 cells of CT26.CL25 cancer cells were subcutaneously injected into the above Balb/c wild-type mice to induce cancer. On the 7th day after the injection of cancer cells, 1 mg/kg of each test substance (buffer only, doxorubicin-loaded FH-SIRPα HV nanocage, doxorubicin-loaded ferritin heavy chain nanocage, doxorubicin+recombinant SIRPα, doxorubicin only, FH-SIRPα HV nanocage, ferritin heavy chain nanocage or recombinant SIRPα) was injected first by the tail vein and further injected four times at interval of 3 days at the same dose. The animals were sacrificed for 25 days after the injection of cancer cells, and the tumor tissues were excised and an ex vivo image was taken (FIG. 7D). Further, the volume of the tumor tissue over time before the sacrifice of the experimental animals was recorded from 7 days after the injection of cancer cells at the interval of 3 days by calculating using the following formula after measuring length (L) and width (W) of tumor tissues using a caliper: Tumor tissue volume (V [mm^3])=(L [mm])×(W [mm])^2×0.5

Assay [5] deals with secondary cancer transplanted to other site. In words: Anticancer memory effect: secondary tumor rechallenge and survival. The class given is in vivo, mice. Conditions: after 80 days of tumor rechallenge. From the text: The present inventors have hypothesized that the effect of FH-SIRPα nanocage according to an embodiment of the present invention is due to the recruiting of immune cells from the results of Experimental Example 3. Thus, the present inventors analyze growth of secondary cancer transplanted to other site and counted survival rate of the experimental animals after excising primary tumor tissues from the experimental animals.

Another assay has as its target T1, Mouse CD47 (Mus musculus, UniProt Q61735).
T1 sequence (Q61735 19-303): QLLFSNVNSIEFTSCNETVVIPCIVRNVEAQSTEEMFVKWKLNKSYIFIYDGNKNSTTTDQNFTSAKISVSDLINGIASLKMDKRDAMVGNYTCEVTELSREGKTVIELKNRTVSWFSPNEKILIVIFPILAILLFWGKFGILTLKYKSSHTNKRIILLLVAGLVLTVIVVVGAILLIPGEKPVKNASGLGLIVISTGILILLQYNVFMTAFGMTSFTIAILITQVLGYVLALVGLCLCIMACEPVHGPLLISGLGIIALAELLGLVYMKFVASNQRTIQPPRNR
Kind of assay: Surface plasmon resonance (SPR) analysis of affinities and kinetics of binding to mouse CD47. The method, then: (§3) The present inventors performed fluorescence microscopy to confirm whether the FH-SIRPα HV nanocage prepared in Example 1 specifically binds to CD47 on the surface of cancer cells. Specifically, CT26 mouse colorectal cancer cell line and HT29 human colorectal cancer cell line were inoculated at a concentration of 3×10^4 cells/ml. Then, after treating 400 nM of FH-SIRPα HV nanocage prepared in Example 1-1 or same amount of wild-type ferritin heavy chain nanocage as control group, anti-ferritin primary antibody (Abcam, Cambridge, UK) and FITC-conjugated anti-mouse rabbit secondary antibody (Jackson ImmunoResearch, Suffolk, UK) were treated and then fluorescence microscopic images were obtained. […] The affinities and kinetics of FH-SIRP α HV nanocage binding human or mouse CD47 were analyzed by surface plasmon resonance (SPR) analysis and the results are shown in Table 1 below.
(In general: SPR reads the build-up and loss of mass on a sensor chip optically.)

Another assay has as its target Human CD47 (Homo sapiens, UniProt Q08722). In words: Surface plasmon resonance (SPR) analysis of affinities and kinetics of binding to human CD47. As to the method: as §3
In assay [6] the test system is CT26.CL25 cancer cells. Kind of assay: In vivo cancer growth inhibition, intratumoral nanocages. Conditions: CT26.CL25 subcutaneous; intratumoral 28 mg/kg. Also noted: species or system Balb/c wild-type mice. The method, then:
as §2
First, in order to measure the in vivo anticancer activity of the various ferritin heavy chain nanocages prepared in Examples 1-1 to 1-5, 1×10^6 cells of CT26.CL25 cancer cells expressing β-galactosidase were subcutaneously injected on the left side of Balb/c wild-type mice in order to induce cancer and then each experimental substance (buffer only, FH-mSIRPα WT, FH-SIRPα HV, FH-SIRPγ WT and FH-SIRPγ V2) was injected intratumorally at dose of 28 mg/kg) after 5 day of tumor inoculation, and the length (L) and the width (W) of the tumor tissues were measured using a caliper at intervals of 3 days (FIG. 7A), and then the volume of tumor tissue was calculated using the following formula: Tumor tissue volume (V [mm^3])=(L [mm])×(W [mm])^2×0.5

For assay [7], the system named is CT26.CL25 mouse colon cancer cells. Kind of assay: Phagocytosis rate of CT26.CL25 cells by bone marrow-derived macrophages (counting phagocytized cells). Type of assay: cell-based. Conditions: BMDMs cocultured with CT26.CL25 at 37° C. for 4 hours. The method, then: After the staining, phagocytosis rate of macrophages against cancer cells were determined by counting phagocytized cancer cells by the macrophages.

[8] abbreviates: five injections at interval of 3 days.

Usually Kd stands for the free concentration of one partner at which half of the binding sites on the other are occupied at equilibrium, for simple one-to-one binding.

Entries after “also recorded” stand apart in the source; their conditions may differ.

Human CD47, sequence (Q08722 19-323): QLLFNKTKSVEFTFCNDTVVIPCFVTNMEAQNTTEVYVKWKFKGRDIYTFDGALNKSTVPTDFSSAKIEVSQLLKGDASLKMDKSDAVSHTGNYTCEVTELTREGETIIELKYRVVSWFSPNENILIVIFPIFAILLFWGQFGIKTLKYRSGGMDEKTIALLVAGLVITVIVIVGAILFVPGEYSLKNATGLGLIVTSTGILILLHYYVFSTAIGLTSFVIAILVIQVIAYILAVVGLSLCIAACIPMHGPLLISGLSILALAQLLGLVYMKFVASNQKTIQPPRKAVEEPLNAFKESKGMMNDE

Turning to “wtFH: Wild-type ferritin heavy chain nanocage used as control [reference compound]”, in assay [1], the “degree of cell binding” value was “did not bind to cancer cells even when the concentration increased”. The “phagocytosis of cancer cells by dendritic cells (BMDCs)” value in assay [2] is on record as “very low”. Further, in assay [3], the “phagocytosis of cancer cells by macrophages (BMDMs)” value was “very low”.
As to `COc1cccc2c1C(=O)c1c(O)c3c(c(O)c1C2=O)C[C@@](O)(C(=O)CO)C[C@@H]3O[C@H]1C[C@H](N)[C@H](O)[C@H](C)O1` [doxorubicin], the “tumor tissues excised after 25 days of cancer cell injection” value in the assay on CT26.CL25 cancer cells [4] was “limited”. The “anticancer effect (growth of cancer cells)” value in the assay with CT26.CL25 cancer cells [4] (setting [8]) was “insignificant; also recorded: not so significant”. Moreover, in assay [5], the survival rate was determined as 50%.
In the assay with Mouse CD47, “mSIRPα: Monomeric (recombinant) SIRPα protein used as comparator” registered a Kd of 6.2 nM, a ka of 1.8e+06 M⁻¹ s⁻¹ and a kd of 0.011 s⁻¹. For the same compound, in the assay with Human CD47, binding was characterised by a dissociation constant (Kd) of 5.4 pM, the ka was determined as 7e+06 M⁻¹ s⁻¹ and the kd was 3.7e-05 s⁻¹. The “phagocytosis of cancer cells by dendritic cells (BMDCs)” value in assay [2] is listed as “significantly increased”. In addition, the “tumor tissues excised after 25 days of cancer cell injection” value in the assay with CT26.CL25 cancer cells [4] is “same tumor volume as the control group”. Also, in the assay on CT26.CL25 cancer cells [4] (setting [8]), the “anticancer effect (growth of cancer cells)” value is given as “not so significant” and the “volume of the tumor” value is reported as “exceeded 1,000 mm^3”. Further, the “phagocytosis of cancer cells by macrophages (BMDMs)” value in assay [3] is recorded as “significantly increased”. Further, in assay [5], the survival rate is reported as 50%.
“FH-hSIRPα WT nanocage: Ferritin heavy chain nanocage of fusion protein with human SIRPα wild-type protein (SEQ ID NO: 92)”: the “degree of cell binding” value in [1] is reported as “binds to cancer cells in a concentration-dependent manner”. In the assay with CT26.CL25 cancer cells [6], the “antitumor activity (tumor growth)” value is given as “somewhat lowered”. Also, in [7], the “phagocytic activity against cancer cells” value is given as “exhibited phagocytic activity against cancer cells”.

Source of the values: patent US10905774B2, “Nanocage and use thereof” (KOREA INSTITUTE OF SCIENCE AND TECHNOLOGY, priority 2016, dated 2021).
